Measurements as given in patent US11564928B1, “Cannabinoid receptor type 2 (CB2) modulators and uses thereof” (Teon Therapeutics, Inc., priority 2020, dated 2023).
Read-outs that look alike come from different tables or passages of the source.

Key:
human CB2 receptor = human CB2 receptor (Homo sapiens (Human), UniProt P34972); assay: CB2 receptor binding assay ([3H]CP-55,940 displacement, HEK-293 membranes)
Description: The compounds were evaluated in CB1R and CB2R binding assays using membranes from HEK-293 cells transfected with cDNAs encoding the human recombinant CB1R (Bmax=[…] protein) and human recombinant CB2R (Bmax=[…] protein) (Perkin-Elmer). […] Compounds were tested following the procedure described by the cell membrane manufacturer. […] CB2R binding assays were carried out with two different buffers: incubation buffer (Tris-HCl, 50 mM; MgCl2, 5 mM; CaCl2 1 mM; BSA, 0.2% at pH 7.4) and washing buffer (Tris-HCl, 50 mM; NaCl 500 mM; BSA, 0.1% at pH 7.4). […] Assays were performed in duplicate and incubated for […] at 37° C. […] Data are analyzed and IC50 is calculated using GraphPad Prism 5 and the model “log(inhibitor) vs. response—Variable slope”. The binding affinity of the compounds is Determined by Using the Cheng and Prusoff Equation Ki=IC50/(1+[radioligand]/Kd).

human recombinant CB1R = human recombinant CB1R (Homo sapiens (Human), UniProt P21554); assay: CB1 receptor binding assay ([3H]CP-55,940 displacement, HEK-293 membranes)
Description: The compounds were evaluated in CB1R and CB2R binding assays using membranes from HEK-293 cells transfected with cDNAs encoding the human recombinant CB1R (Bmax=[…] protein) and human recombinant CB2R (Bmax=[…] protein) (Perkin-Elmer). […]. Compounds were tested following the procedure described by the cell membrane manufacturer. […] CB2R binding assays were carried out with two different buffers: incubation buffer (Tris-HCl, 50 mM; MgCl2, 5 mM; CaCl2 1 mM; BSA, 0.2% at pH 7.4) and washing buffer (Tris-HCl, 50 mM; NaCl 500 mM; BSA, 0.1% at pH 7.4). […] Assays were performed in duplicate and incubated for […] at 37° C. After the incubation, the assay mixture is filtered through 96 GF/C filter plates (Perkin Elmer #6005174) using Perkin Elmer Filtermate Harvester, and then washed four times with ice-cold washing buffer. The filters are dried for 1 hour at 50° C. and [^3H] trapped on filter counted for radioactivity in Perkin Elmer Microscint 20 cocktail (#6013329) using Perkin Elmer MicroBeta2 Reader. […] Data are analyzed and IC50 is calculated using GraphPad Prism 5 and the model “log(inhibitor) vs. response—Variable slope”. The binding affinity of the compounds is Determined by Using the Cheng and Prusoff Equation Ki=IC50/(1+[radioligand]/Kd).

[1] = membranes of HEK-293 cells with human recombinant CB2R, [3H]CP-55,940, read-out: CB2 IC50
[2] = membranes of HEK-293 cells with human recombinant CB1R, [3H]CP-55,940, read-out: CB1 IC50
[3] = membranes of HEK-293 cells with human recombinant CB2R, [3H]CP-55,940, class symbols, read-out: CB2 IC50
[4] = membranes of HEK-293 cells with human recombinant CB1R, [3H]CP-55,940, class symbols, read-out: CB1 IC50

human CB2 receptor, sequence (P34972 whole entry): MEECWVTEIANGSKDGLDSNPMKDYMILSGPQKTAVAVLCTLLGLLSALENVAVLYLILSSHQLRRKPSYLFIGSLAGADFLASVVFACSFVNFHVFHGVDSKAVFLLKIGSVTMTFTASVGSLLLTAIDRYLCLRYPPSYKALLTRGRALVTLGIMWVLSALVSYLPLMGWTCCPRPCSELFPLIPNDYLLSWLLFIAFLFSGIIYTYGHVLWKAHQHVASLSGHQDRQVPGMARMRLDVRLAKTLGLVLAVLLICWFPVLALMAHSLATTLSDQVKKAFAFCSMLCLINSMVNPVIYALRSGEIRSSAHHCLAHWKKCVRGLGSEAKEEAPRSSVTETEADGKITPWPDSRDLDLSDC
human recombinant CB1R, sequence (P21554 whole entry): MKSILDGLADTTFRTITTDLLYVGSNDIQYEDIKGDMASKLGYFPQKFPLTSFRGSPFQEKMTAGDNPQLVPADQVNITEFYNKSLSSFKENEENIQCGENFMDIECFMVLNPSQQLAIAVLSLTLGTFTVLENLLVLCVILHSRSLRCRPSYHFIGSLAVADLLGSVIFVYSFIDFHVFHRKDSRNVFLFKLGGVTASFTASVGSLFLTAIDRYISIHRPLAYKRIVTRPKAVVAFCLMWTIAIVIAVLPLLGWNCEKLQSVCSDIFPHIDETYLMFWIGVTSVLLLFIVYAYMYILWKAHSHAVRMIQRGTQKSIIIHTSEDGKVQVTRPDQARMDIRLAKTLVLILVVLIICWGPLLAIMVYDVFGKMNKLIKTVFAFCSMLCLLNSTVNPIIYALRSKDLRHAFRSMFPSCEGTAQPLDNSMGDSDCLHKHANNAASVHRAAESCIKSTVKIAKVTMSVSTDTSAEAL

| Structure (SMILES) | IC50 (human CB2 receptor; [3]) | IC50 (human recombinant CB1R; [4]) | also measured |
| --- | --- | --- | --- |
| O=C(NC1CC2(CCC2)C1)c1cc2cc(-c3ccc(F)cc3)cnc2n(CCN2CCOCC2)c1=O [Compound 32, 6-(4-fluorophenyl)-1-(2-morpholinoethyl)-2-oxo-N-(spiro[3.3]heptan-2-yl)-1,2-dihydro-1,8-naphthyridine-3-carboxamide] |  |  | IC50 (human CB2 receptor; [1]): 0.8 nM; IC50 (human recombinant CB1R; [2]): 39 nM |
| O=C(NC1CC2(CCC2)C1)c1cc2cc(-c3ccccn3)cnc2n(CCN2CCOCC2)c1=O [Compound 34, 1-(2-morpholinoethyl)-2-oxo-6-(pyridin-2-yl)-N-(spiro[3.3]heptan-2-yl)-1,2-dihydro-1,8-naphthyridine-3-carboxamide] |  |  | IC50 (human CB2 receptor; [1]): 1 nM; IC50 (human recombinant CB1R; [2]): 184 nM |
| O=C(NC1CC2(CCC2)C1)c1cc2cc(-c3ccncn3)cnc2n(CCN2CCOCC2)c1=O [Compound 35, 1-(2-morpholinoethyl)-2-oxo-6-(pyrimidin-4-yl)-N-(spiro[3.3]heptan-2-yl)-1,2-dihydro-1,8-naphthyridine-3-carboxamide] |  |  | IC50 (human CB2 receptor; [1]): 7.5 nM; IC50 (human recombinant CB1R; [2]): 358 nM |
| O=C(NC1CC2(CCC2)C1)c1cc2cc(-c3ccc(F)cn3)cnc2n(CCN2CCOCC2)c1=O [Compound 37, 6-(5-fluoropyridin-2-yl)-1-(2-morpholinoethyl)-2-oxo-N-(spiro[3.3]heptan-2-yl)-1,2-dihydro-1,8-naphthyridine-3-carboxamide] |  |  | IC50 (human CB2 receptor; [1]): 0.6 nM; IC50 (human recombinant CB1R; [2]): 112 nM |
| O=C(NC1CC2(CCC2)C1)c1cc2cc(-c3ncccn3)cnc2n(CCN2CCOCC2)c1=O [Compound 38, 1-(2-morpholinoethyl)-2-oxo-6-(pyrimidin-2-yl)-N-(spiro[3.3]heptan-2-yl)-1,2-dihydro-1,8-naphthyridine-3-carboxamide] | < 100 nM |  | IC50 (human recombinant CB1R): 100 to 999 nM |
| COc1ccc(-c2ccc3c(c2)cc(C(=O)NC2CCC(C)(C)CC2)c(=O)n3CCN2CCOCC2)cc1 [Compound 39, N-(4,4-dimethylcyclohexyl)-6-(4-methoxyphenyl)-1-(2-morpholinoethyl)-2-oxo-1,2-dihydroquinoline-3-carboxamide] |  |  | IC50 (human CB2 receptor; [1]): 1.2 nM; IC50 (human recombinant CB1R; [2]): > 10000 nM |
| CC(NC(=O)c1cc2cc(-c3ccc(C#N)cn3)cnc2n(CCN2CCOCC2)c1=O)c1ccc(C#N)cc1 (stereo not drawn) [Compound 41, N-(1-(4-cyanophenyl)ethyl)-6-(5-cyanopyridin-2-yl)-1-(2-morpholinoethyl)-2-oxo-1,2-dihydro-1,8-naphthyridine-3-carboxamide] |  | > 1000 nM | IC50 (human CB2 receptor): 100 to 999 nM |
| O=C(NC12CC(C1)C2)c1cc2cc(-c3ccc(OC(F)F)cc3)cnc2n(CCN2CCOCC2)c1=O [Compound 54, N-(bicyclo[1.1.1]pentan-1-yl)-6-(4-(difluoromethoxy)phenyl)-1-(2-morpholinoethyl)-2-oxo-1,2-dihydro-1,8-naphthyridine-3-carboxamide] | < 100 nM | > 1000 nM |  |
| CC(NC(=O)c1cc2cc(-c3ccc(C#N)cn3)cnc2n(CC(C)(C)N2CCOCC2)c1=O)c1ccc(F)cc1 (stereo not drawn) [Compound 56, 6-(5-cyanopyridin-2-yl)-N-(1-(4-fluorophenyl)ethyl)-1-(2-methyl-2-morpholinopropyl)-2-oxo-1,2-dihydro-1,8-naphthyridine-3-carboxamide] | < 100 nM | > 1000 nM |  |
| CC(NC(=O)c1cc2cc(Br)cnc2n(Cc2ncccn2)c1=O)c1ccc(F)cc1 (stereo not drawn) [Compound 64, 6-bromo-N-(1-(4-fluorophenyl)ethyl)-2-oxo-1-(pyrimidin-2-ylmethyl)-1,2-dihydro-1,8-naphthyridine-3-carboxamide] | > 1000 nM | > 1000 nM |  |
| CC(NC(=O)c1cc2cc(-c3ccc(F)cc3)cnc2n(Cc2ncccn2)c1=O)c1ccc(F)cc1 (stereo not drawn) [Compound 65, 6-(4-fluorophenyl)-N-(1-(4-fluorophenyl)ethyl)-2-oxo-1-(pyrimidin-2-ylmethyl)-1,2-dihydro-1,8-naphthyridine-3-carboxamide] |  | > 1000 nM | IC50 (human CB2 receptor): 100 to 999 nM |
| CC(C)Oc1ccc(-c2cnc3c(c2)cc(C(=O)NC2CC4(CCC4)C2)c(=O)n3Cc2ccc(F)cc2)cc1 [Compound 66, 6-(4-isopropoxyphenyl)-1-(4-fluorobenzyl)-2-oxo-N-(spiro[3.3]heptan-2-yl)-1,2-dihydro-1,8-naphthyridine-3-carboxamide] | > 1000 nM | > 1000 nM |  |
| O=C(NC1CC2(CCC2)C1)c1cc2cc(-c3ccc(OC4CC4)cc3)cnc2n(Cc2ccc(F)cc2)c1=O [Compound 67, 6-(4-cyclopropoxyphenyl)-1-(4-fluorobenzyl)-2-oxo-N-(spiro[3.3]heptan-2-yl)-1,2-dihydro-1,8-naphthyridine-3-carboxamide] | > 1000 nM | > 1000 nM |  |
| CS(=O)(=O)c1ccc(-c2cnc3c(c2)cc(C(=O)NC2CC4(CCC4)C2)c(=O)n3Cc2ccc(F)cc2)cc1 [Compound 68, 1-(4-fluorobenzyl)-6-(4-(methylsulfonyl)phenyl)-2-oxo-N-(spiro[3.3]heptan-2-yl)-1,2-dihydro-1,8-naphthyridine-3-carboxamide] |  | > 1000 nM | IC50 (human CB2 receptor): 100 to 999 nM |
| O=C(Nc1ccccn1)c1cc2cc(Br)cnc2n(Cc2ccc(F)cc2)c1=O [Compound 70, 6-bromo-1-(4-fluorobenzyl)-2-oxo-N-(pyridin-2-yl)-1,2-dihydro-1,8-naphthyridine-3-carboxamide] | < 100 nM | > 1000 nM |  |
| Cc1ccc(NC(=O)c2cc3cc(Br)cnc3n(Cc3ccc(F)cc3)c2=O)cc1 [Compound 71, 6-bromo-1-(4-fluorobenzyl)-2-oxo-N-(p-tolyl)-1,2-dihydro-1,8-naphthyridine-3-carboxamide] | > 1000 nM | > 1000 nM |  |
| Cc1c(C(=O)NC2CCC(C)CC2)c(=O)n(CCN2CCOCC2)c2ncc(Br)cc12 (stereo not drawn) [Compound 72, 6-bromo-4-methyl-N-(4-methylcyclohexyl)-1-(2-morpholinoethyl)-2-oxo-1,2-dihydro-1,8-naphthyridine-3-carboxamide] | < 100 nM | > 1000 nM |  |
| COc1ccc(-c2cnc3c(c2)c(C)c(C(=O)NC2CCC(C)CC2)c(=O)n3CCN2CCOCC2)cc1 (stereo not drawn) [Compound 73, 6-(4-methoxyphenyl)-4-methyl-N-(4-methylcyclohexyl)-1-(2-morpholinoethyl)-2-oxo-1,2-dihydro-1,8-naphthyridine-3-carboxamide] |  | > 1000 nM | IC50 (human CB2 receptor): 100 to 999 nM |
| COc1ccc(-c2cnc3c(c2)c(C)c(C(=O)NC2CC4(CCC4)C2)c(=O)n3CCN2CCOCC2)cc1 [Compound 74, 6-(4-methoxyphenyl)-4-methyl-1-(2-morpholinoethyl)-2-oxo-N-(spiro[3.3]heptan-2-yl)-1,2-dihydro-1,8-naphthyridine-3-carboxamide] | > 1000 nM | > 1000 nM |  |
| COc1ccc(-c2cnc3c(c2)c(C)c(C(=O)NC(C)c2ccc(F)cc2)c(=O)n3CCN2CCOCC2)cc1 (stereo not drawn) [Compound 75, N-(1-(4-fluorophenyl)ethyl)-6-(4-methoxyphenyl)-4-methyl-1-(2-morpholinoethyl)-2-oxo-1,2-dihydro-1,8-naphthyridine-3-carboxamide] | > 1000 nM | > 1000 nM |  |
| Cc1c(C(=O)NC2CC3(CCC3)C2)c(=O)n(Cc2ccc(F)cc2)c2ncc(Br)cc12 [Compound 76, 6-bromo-1-(4-fluorobenzyl)-4-methyl-2-oxo-N-(spiro[3.3]heptan-2-yl)-1,2-dihydro-1,8-naphthyridine-3-carboxamide] | < 100 nM | > 1000 nM |  |
| Cc1c(C(=O)NC2CC3(CCC3)C2)c(=O)n(Cc2ccc(C#N)cc2)c2ncc(Br)cc12 [Compound 77, 6-bromo-1-(4-cyanobenzyl)-4-methyl-2-oxo-N-(spiro[3.3]heptan-2-yl)-1,2-dihydro-1,8-naphthyridine-3-carboxamide] |  | > 1000 nM | IC50 (human CB2 receptor): 100 to 999 nM |
| Cc1c(C(=O)NC2CC3(CCC3)C2)c(=O)n(Cc2cccc(C#N)c2)c2ncc(Br)cc12 [Compound 78, 6-bromo-1-(3-cyanobenzyl)-4-methyl-2-oxo-N-(spiro[3.3]heptan-2-yl)-1,2-dihydro-1,8-naphthyridine-3-carboxamide] |  | > 1000 nM | IC50 (human CB2 receptor): 100 to 999 nM |
| COc1ccc(-c2cnc3c(c2)c(C)c(C(=O)NC2CCC(C)CC2)c(=O)n3Cc2ccc(F)cc2)cc1 (stereo not drawn) [Compound 80, 1-(4-fluorobenzyl)-6-(4-methoxyphenyl)-4-methyl-N-(4-methylcyclohexyl)-2-oxo-1,2-dihydro-1,8-naphthyridine-3-carboxamide] |  | > 1000 nM | IC50 (human CB2 receptor): 100 to 999 nM |
